Structures are written as SMILES.

Our source for the Km values is article PMC4644822, “Extracellular α-Galactosidase from Trichoderma sp. (WF-3): Optimization of Enzyme Production and Biochemical Characterization” (Biotechnology Research International, 2015).

The assay concerns T1, extracellular α-galactosidase from Trichoderma sp. (WF-3).
T1 construct: gene agl1; native secreted enzyme, unpurified culture filtrate
Put plainly: p-nitrophenol release at […] nm, Lineweaver-Burk plot. It is filed as biochemical. The conditions noted are these: culture filtrate (unpurified); standard assay 0.05 M sodium acetate pH 5.0, 50 °C, 10 min; 0.05-4.5 mM substrate; read-out: apparent K m.

Consider `O=[N+]([O-])c1ccc(O[C@H]2O[C@H](CO)[C@H](O)[C@H](O)[C@H]2O)cc1` [pNPGal, p-nitrophenyl-α-D-galactopyranoside], for which the Km came out at 500 µM.
